Measured values: PMC11562788, “Insights into the Hierarchical Assembly of a Chemically Diverse Peptide Hydrogel Derived from Human Semenogelin I” (ACS Nano, 2024)
Values after ≈ are worked out from the molar mass of the structure shown. “Also recorded” adds a separate entry of the source. Residues, ends and D or L forms follow the SMILES beside them.

What was measured:
Format in all cases: physicochemical
[1] = SAXS/WAXS of fibrils, elliptical cylinder model fit; conditions: for Fibril axis ratio / Fibril cross-sectional area / Fibril minor radius (minor semiaxis): SAXS, elliptical cylinder model fit, 2.0 mM, day 7 at 21 °C
Protocol: Small- and wide-angle X-ray scattering (SAXS/WAXS) measurements were performed on a SAXSLabs Ganesha pinhole instrument (JJ X-ray System Aps) with an X-ray microsource (Xenocs) and a two-dimensional 300k Pilatus detector (Dectris Ltd., Switzerland). The wavelength, λ, used for all scattering experiments was 1.54 Å, and samples were measured at three sample-to-detector distances. All samples (200 μL) were loaded into a 1.5 mm diameter quartz capillary (Hilgenberg GmbH, Malsfeld, Germany), and the time-averaged scattering intensities were analyzed using a python code. The scattering intensity was corrected to an absolute scale by calibration against water. Supramolecular dimensions were extracted from SAXS data by using the SasView software and fitting the scattering curves to an elliptical-cylinder model (www.sasview.org).

[2] = Hydrogelation and gel appearance by visual inspection
Protocol: All FTIR measurements were collected on samples where a trifluoroacetate (TFA^–) to chloride ion exchange was performed to eliminate signals from the TFA^– carbonyl moiety in the amide I spectral region (Figure S1). FTIR spectra were collected for P0–P5 in D2O at six pD values (3.0, 5.0, 7.0, 8.0, 9.0, and 10.0) (Figures S2–S7). FTIR analysis for P6–P8 was performed at a pD of 8.0 (Figures S8–S10). The bulk of FTIR studies were performed at pD 8.0, as the optimum pH range for hydrogelation is 7–9 for both SgI38–48[28] and P0.
(§1) All samples were prepared in nonstick Eppendorf tubes (Axygen, Inc.). Prior to the final sample preparation (for all FTIR samples and when otherwise stated), the TFA counteranions present in the peptide sample after HPLC purification were exchanged for chloride using the following protocol: lyophilized peptide was dissolved in deionized D2O (1.0 mL). HCl was added at a molar ratio of 13.7:1 HCl:peptide. For the Phe^CN mutants, the sample was divided into two groups and lyophilized. One sample was then redissolved in H2O (to avoid obscuring the O–D stretches in the nitrile region) and the other in D2O (to avoid overlapping of the O-H bending vibrations in the amide I region) to a final concentration of 2.0 mM, unless otherwise specified. All other peptide samples were redissolved in D2O. The exchange of TFA^– to chloride may be verified by a lack of signal at 1672 cm^–1, seen in the IR spectrum for the deuterium-exchanged TFA salt of P3, where the carbonyl signal from TFA is well separated from the amide I carbonyl high frequency stretch at 1684 cm^–1 (Figure S1). On the day of the peptide sample preparation, D2O was placed in an Eppendorf tube, was then used as background when collecting data points (0 h, 48 h, 1 week, etc.), and was assumed to absorb the same amount of H2O over time as the peptide sample prepared on the same day. The concentration of the peptide solutions was verified with the UV–vis absorbance peak at 280 nm using a molar absorptivity of 2560 M^–1 cm^–1 for all sequences (P0–P7). The pH/pD of the samples was then corrected to 8.0 using small volumes of NaOH and HCl (or NaOD and DCl). After attaining the desired pH/pD, samples were incubated at ambient temperature (ca. 22 °C) and followed over 7 days (or as specified) to allow for hydrogelation.

[3] = Cryo-TEM of fibril formation and morphology
Protocol: Images were obtained at the National Center for High Resolution Electron Microscopy within Lund University on a JEOL JEM-2200 transmission electron microscopy instrument using a TVIPS F416 camera with an accelerator voltage of 200 kV. […] Grids were glow-discharged prior to sample preparation. Image processing was performed on the open-source software ImageJ (https://imagej.nih.gov) with the FIJI processing package.

[4] = Stability of P0 gel in solution by MALDI-TOF mass spectrometry; conditions: P0 in H2O pH 8.0, chloride salt 1.0 mM and trifluoroacetate salt 0.5 mM, ambient temperature, 2 weeks, MALDI-TOF/TOF MS
Protocol: The identity and purity of all peptides were verified by electrospray or matrix-assisted laser desorption/ionization time-of-flight (MALDI-TOF) mass spectrometry (Bryn Mawr College, PA, at the Chemical Center, Lund University, Lund, Sweden, or at the Laboratory for Biological Mass Spectrometry at Texas A&M University, College Station, TX). Mass spectra were typically acquired using an Autoflex Speed MALDI TOF/TOF mass spectrometer (Bruker Daltonics) in positive reflector mode. A 1 μL peptide sample was mixed with 0.5 μL matrix solution, consisting of 5 mg/ml α-cyano-4-hydroxy cinnamic acid, 80% acetonitrile, and 0.1% TFA, and added to a MALDI stainless steel plate. All spectra were externally calibrated using Peptide Calibration Standard II (Bruker Daltonics) containing 9 internal standard peptides. […]
All samples were prepared in nonstick Eppendorf tubes (Axygen, Inc.). […] The concentration of the peptide solutions was verified with the UV–vis absorbance peak at 280 nm using a molar absorptivity of 2560 M^–1 cm^–1 for all sequences (P0–P7). […]
Figure S16. P0 gel stability was evaluated by MALDI-TOF analysis. […] (A) A sample of P0 in H2O at pH 8.0, chloride salt (1.0 mM) and (B) trifluoroacetate salt (0.5 mM) were prepared for stability and analyzed by MALDI-TOF mass spectrometry. […]
degradation was observed over 2 weeks. […] The calculated mass for P0 [M+H]+ m/z = 1585.72. […]

[5] = FTIR amide I: β-sheet self-assembly; conditions: D2O, pD 8.0, 2.0 mM (P7, P8 and F40FCN 1.0 mM), ambient temperature
Protocol: as §1
FT IR was performed with a Bruker Vertex 70 spectrometer with a photovoltaic mercury cadmium telluride (MTC) detector. Before the spectral collection, the MCT detector was cooled with liquid nitrogen. A background spectrum (see hydrogel sample preparation above) was collected (6 μL of H2O or D2O), and the collection chamber was purged for 15 min before 6 μL of sample was loaded in between two CaF2 windows and separated by a 50-μm Teflon spacer in a 25-mm diameter demountable liquid cell (Harrick Scientific). After purging again, the IR spectrum was collected with 512 scans, with a resolution of 2 cm^–1, from 900 cm^–1 to 4000 cm^–1 at time t = 0 h, 24 h, 48 h, and 1 week (and sometimes longer) after sample constitution, processed using OPUS spectroscopy software, and plotted with Origin or KaleidaGraph.

[6] = Solubility in water

Fibril axis ratio ([1]; pH 8.0) | Fibril cross-sectional area ([1]; pH 8.0) [nm^2] | Fibril minor radius (minor semiaxis) ([1]; pH 8.0) [nm] | Repeat distance of sharp SAXS peak at q = 0.305 Å^–1 ([1]; after 1 day of incubation at 21 °C) [nm] | Diameter of fibril bundle (cryo-TEM) ([3]; after 7 days of incubation at 21 °C, bundle of approximately 5 fibrils) [nm] | Optimum pH range for hydrogelation ([2]; P0) | Hydrogel formation on pH adjustment ([2]; P0 in H2O at pH 8.0, chloride salt 1.0 mM and trifluoroacetate salt 0.5 mM) | Fibril formation by SAXS scattering ([1]; 2.0 mM P0–P6, 1.0 mM P7, 7 days at 21 °C, pH 8.0) | Hydrogel formation ([2]; visual inspection, peptide in water/D2O, pH/pD 8.0, 2.0 mM (P7 1.0 mM), ambient temperature ca. 22 °C, up to 7 days) | Presence of fibrils (cryo-TEM) ([3]; pH 8.0 water, 2.0 mM (P7 1.0 mM), incubation at 21 °C) | Solubility in water (in words) ([6]; P7 and P8 not tested above 1.0 mM at pH 8) | solubility ([6]; pH 8.0, read-out: Solubility limit in water) [µM] | Compound | Colloidal stability / phase separation of the hydrogel ([2]; visual inspection after hydrogel preparation, pH/pD 8.0, 2.0 mM, ambient temperature) | Degradation in solution [4] | Gel appearance over time (clear or cloudy / precipitate) ([2]; visual inspection, 2.0 mM in D2O, pD 8.0, ambient temperature, 24 h to 6 days) | β-Sheet secondary structure (self-assembly) by FTIR amide I [5]
1.9 | 65.0 | 3.3 | 2.1 | ~10 | – | – | – | – | – | – | – | CC[C@H](C)[C@H](NC(C)=O)C(=O)N[C@@H](CCC(N)=O)C(=O)N[C@@H](Cc1ccc(O)cc1)C(=O)N[C@H](C(=O)N[C@@H](Cc1ccc(O)cc1)C(=O)N[C@@H](Cc1c[nH]cn1)C(=O)N[C@H](C(=O)N[C@@H](CC(=O)O)C(N)=O)C(C)C)[C@@H](C)O [P5] (Ac-IQYTYHVD-NH2) | colloidally unstable and undergoes phase separation | – | – | –
2.8 | 14.9 | 1.3 | – | – | 7–9 | soft gel immediately formed | – | – | – | – | – | CC[C@H](C)[C@H](NC(=O)[C@H](CO)NC(=O)[C@H](Cc1ccccc1)NC(=O)[C@H](CO)NC(=O)CNC(=O)[C@H](CCCCN)NC(C)=O)C(=O)N[C@@H](CCC(N)=O)C(=O)N[C@@H](Cc1ccc(O)cc1)C(=O)N[C@H](C(=O)N[C@@H](Cc1ccc(O)cc1)C(=O)N[C@@H](Cc1c[nH]cn1)C(=O)N[C@H](C(=O)N[C@@H](CC(=O)O)C(N)=O)C(C)C)[C@@H](C)O [P0] (Ac-KGSFSIQYTYHVD-NH2) | – | No appreciable, if any; also recorded: No degradation | usually yields a clear gel upon preparation but occasionally turns cloudy | –
– | – | – | – | – | – | – | no significant scattering is observed | inability of P7 to form a hydrogel | contains no fibrils | low solubility | 1000 (≈ 838 µg/mL) | CC(=O)N[C@@H](Cc1ccc(O)cc1)C(=O)N[C@H](C(=O)N[C@@H](Cc1ccc(O)cc1)C(=O)N[C@@H](Cc1c[nH]cn1)C(=O)N[C@H](C(=O)N[C@@H](CC(=O)O)C(N)=O)C(C)C)[C@@H](C)O [P7] (Ac-YTYHVD-NH2) | – | – | – | no sign of a β-sheet secondary structure; also recorded: unstructured
